From ChEMBL document CHEMBL1135715, “DNA cleavage potency, cytotoxicity, and mechanism of action of a novel class of enediyne prodrugs” (J Med Chem, 2002)
pIC50: −log10 of the molar value.

System: P388
Assay: Cytotoxicity, 50% inhibitory concentration against P388 Mouse T cell leukemia cell line by MTT assay
Format: functional, cell-based

Compound | pIC50
COCC(=O)OC1C#CCCCCC#C/C1=C\c1ccc2ccccc2c1 (stereo not given) | 4.55
OC1C#CCCCCC#C/C1=C\c1ccc2ccccc2c1 (stereo not given) | 5.44
OC1C#CCCCCC#C/C1=C\c1cccc2ccccc12 (stereo not given) | 4.39
COCC(=O)OC(/C1=C/C#CCCCCC#C1)c1ccc2ccccc2c1 (stereo not given) | 5.02
CC(=O)OC1C#CCCCCC#C/C1=C\c1ccccc1 (stereo not given) | 4.32
COc1ccc(C(O)/C2=C/C#CCCCCC#C2)cc1 (stereo not given) | 4.89
COc1ccc(/C=C2\C#CCCCCC#CC2OC(C)=O)cc1 (stereo not given) | 4.82
COc1ccc(/C=C2\C#CCCCCC#CC2O)cc1 (stereo not given) | 5.24
COCC(=O)OC1C#CCCCCC#C/C1=C\c1ccccc1 (stereo not given) | 4.64
COCC(=O)OC(/C1=C/C#CCCCCC#C1)c1ccccc1 (stereo not given) | 5.11
COCC(=O)OC1C#CCCCCC#C/C1=C\c1cccc2ccccc12 (stereo not given) | 4.92
OC1C#CCCCCC#C/C1=C\c1ccccc1 (stereo not given) | 4.60
CC(=O)OC1C#CCCCCC#C/C1=C\c1cccc2ccccc12 (stereo not given) | 5.62
CC(=O)OC1C#CCCCCC#C/C1=C\c1ccc2ccccc2c1 (stereo not given) | 5.55
COCC(=O)OC(/C1=C/C#CCCCCC#C1)c1cccc2ccccc12 (stereo not given) | 5.42
